Results as given in patent publication US20120129843A1, “PYRIDYL-THIAZOLYL INHIBITORS OF PRO-MATRIX METALLOPROTEINASE ACTIVATION” (priority 2010, published 2012).
Where a name gives a salt, the structure may show the parent alone.

Columns and labels:
[1] = target: T1, full-length proMMP9(1-707) (SEQ ID NO:1), activation by catalytic MMP3 (Homo sapiens, UniProt P14780, R574P); test: proMMP9/MMP3 P126 Activation Assay; format: biochemical
T1 construct: made in house; host or cells: HEK293 (proMMP9, secreted); E. coli (MMP3)
Protocol: proMMP9/MMP3 P126 Activation Assay
The reaction volume was 50 μL. […] Reactivity of residual MMP3 towards P-126 substrate was minimal under these conditions.

[2] = target: T2, proMMP9(67-444;ΔFnII) (SEQ ID NO:5) (Homo sapiens, UniProt P14780, DEL216-390); test: ThermoFluor binding assay with proMMP9(67-444;ΔFnII)
T2 construct: start methionine (N); made in house; host or cells: E. coli BL21(DE3) RIL
T2 sequence (P14780 with tags, fused parts or gaps DEL216-390): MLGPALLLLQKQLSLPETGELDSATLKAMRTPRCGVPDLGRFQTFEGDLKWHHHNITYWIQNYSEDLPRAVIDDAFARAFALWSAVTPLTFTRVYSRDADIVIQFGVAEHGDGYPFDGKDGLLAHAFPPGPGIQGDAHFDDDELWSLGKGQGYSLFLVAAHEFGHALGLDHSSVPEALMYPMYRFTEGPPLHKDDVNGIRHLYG
Protocol: The ThermoFluor® (TF) assay is a 384-well plate-based binding assay that measures thermal stability of proteins (Biomol Screen 2001, 6, 429-40; Biochemistry 2005, 44, 5258-66). The experiments were carried out using instruments available from Johnson & Johnson Pharmaceutical Research & Development, LLC. TF dye used in all experiments was […] (1,8-ANS) (Invitrogen: A-47).
Compounds were arranged in a pre-dispensed plate (Greiner Bio-one: 781280), wherein compounds were serially diluted in 100% DMSO across 11 columns within a series. Columns 12 and 24 were used as DMSO reference and contained no compound. For multiple compound concentration-response experiments, the compound aliquots ([…]) were robotically predispensed directly into black 384-well polypropylene PCR microplates (Abgene: TF-0384/k) using a Cartesian Hummingbird liquid handler (DigiLab, Holliston, Mass.). Following compound dispense, protein and dye solutions were added to achieve the final assay volume of 3 μL. The assay solutions were overlayed with 1 μL of silicone oil (Fluka, type DC 200: 85411) to prevent evaporation.
Assay plates were robotically loaded onto a thermostatically controlled PCR-type thermal block and then heated from 40 to 90° C. at a ramp-rate of 1° C./min for all experiments. Fluorescence was measured by continuous illumination with UV light (Hamamatsu LC6) supplied via fiber optics and filtered through a band-pass filter (380-400 nm; >60D cutoff). Fluorescence emission of the entire 384-well plate was detected by measuring light intensity using a CCD camera (Sensys, Roper Scientific) filtered to detect 500±25 nm, resulting in simultaneous and independent readings of all 384 wells. A single image with 20-sec exposure time was collected at each temperature, and the sum of the pixel intensity in a given area of the assay plate was recorded vs temperature and fit to standard equations to yield the Tm (J Biomol Screen 2001, 6, 429-40).
Thermodynamic parameters necessary for fitting compound binding for each proMMP were estimated by differential scanning calorimetry (DSC) and from ThermoFluor® data. The heat capacity of unfolding for each protein was estimated from the molecular weight and from ThermoFluor® dosing data.
ThermoFluor® with proMMP9(67-444;ΔFnII) (SEQ ID NO:5)
The protein sample preparations had to include a desalting buffer exchange step via a PD-10 gravity column (GE Healthcare). The desalting buffer exchange was performed prior to diluting the protein to the final assay concentration of 3.5 μM proMMP9(67-444;ΔFnII) (SEQ ID NO:5). The concentration of proMMP9(67-444;ΔFnII) (SEQ ID NO:5) was determined spectrophotometrically based on a calculated extinction coefficient of ε280=33900 M^−1cm^−1, a calculated molecular weight of 22.6 kDa, and calculated pI of 5.20. ThermoFluor® reference conditions were defined as follows: 80 μg/mL (3.5 μM) proMMP9(67-444;ΔFnII) (SEQ ID NO:5), 50 μM 1,8-ANS, pH 7.0 Buffer (50 mM HEPES pH 7.0, 100 mM NaCl, 0.001% Tween-20, 2.5 mM MgCl2, 300 μM CaCl2). The thermodynamic parameters for proMMP9(67-444;ΔFnII) (SEQ ID NO:5) are as follows: Tm (° C.)=63 (+/−0.1), ΔUH(Tm) (cal mol^−1)=105000(+/−5000), ΔUS(Tm) (cal mol^−1 K^−1)=[…], ΔUCp (cal mol^−1 K^−1)=2000.

[3] = target: T3, proMMP9(20-445;ΔFnII) (SEQ ID NO:6) (Homo sapiens, UniProt P14780, DEL216-390); test: ThermoFluor binding assay with proMMP9(20-445;ΔFnII)
T3 construct: start methionine (N); made in house; host or cells: E. coli BL21(DE3) RIL
T3 sequence (P14780 with tags, fused parts or gaps DEL216-390): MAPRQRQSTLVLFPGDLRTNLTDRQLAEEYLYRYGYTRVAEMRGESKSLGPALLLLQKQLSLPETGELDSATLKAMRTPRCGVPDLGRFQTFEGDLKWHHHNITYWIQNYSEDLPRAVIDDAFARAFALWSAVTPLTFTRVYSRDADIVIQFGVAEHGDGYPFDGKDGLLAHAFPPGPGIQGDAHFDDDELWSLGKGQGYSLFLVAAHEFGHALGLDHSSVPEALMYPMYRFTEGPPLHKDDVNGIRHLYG
Method in brief: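 Thermal-shift binding using 2.8 μM proMMP9(20-445;ΔFnII) with 50 μM 1,8-ANS in 50 mM HEPES pH 7.0, 100 mM NaCl, 0.001% Tween-20, 2.5 mM MgCl2, 300 μM CaCl2. Compound serially diluted; heated 40–90 °C at 1 °C/min, fluorescence 500 nm. Tm shifts fitted using DSC/ThermoFluor-derived thermodynamic parameters.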

T1 sequence (P14780 20-707 R574P): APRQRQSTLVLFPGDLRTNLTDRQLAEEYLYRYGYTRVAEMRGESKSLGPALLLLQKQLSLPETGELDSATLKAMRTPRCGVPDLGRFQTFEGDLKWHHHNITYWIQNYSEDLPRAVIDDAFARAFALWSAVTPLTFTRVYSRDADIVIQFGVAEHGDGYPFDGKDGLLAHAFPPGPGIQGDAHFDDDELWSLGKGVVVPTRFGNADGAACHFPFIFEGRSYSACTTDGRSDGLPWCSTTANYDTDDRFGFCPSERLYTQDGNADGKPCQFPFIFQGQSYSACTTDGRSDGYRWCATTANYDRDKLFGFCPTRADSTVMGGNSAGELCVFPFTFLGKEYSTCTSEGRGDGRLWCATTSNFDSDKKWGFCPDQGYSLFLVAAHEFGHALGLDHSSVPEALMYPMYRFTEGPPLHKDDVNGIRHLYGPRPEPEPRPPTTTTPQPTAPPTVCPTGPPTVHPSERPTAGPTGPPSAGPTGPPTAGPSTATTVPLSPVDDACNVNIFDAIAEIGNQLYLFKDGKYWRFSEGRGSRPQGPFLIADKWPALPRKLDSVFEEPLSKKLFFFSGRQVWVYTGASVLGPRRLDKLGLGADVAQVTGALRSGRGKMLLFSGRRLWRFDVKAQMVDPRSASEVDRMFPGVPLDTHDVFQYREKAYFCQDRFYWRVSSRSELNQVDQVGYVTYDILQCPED

| SMILES | IC50 [1] | Kd [2] | Kd [3] |
| --- | --- | --- | --- |
| CCN1CCN(C(=O)c2ccc(-c3csc(Nc4cc(S(N)(=O)=O)ccc4OC(C)C)n3)cn2)CC1 [Example 47, 4-Isopropoxy-3-{4-[6-(4-ethyl-piperazine-1-carbonyl)-pyridin-3-yl]-thiazol-2-ylamino}-benzenesulfonamide.TFA] | 980 nM | 1500 nM | 900 nM |
| CC(C)Oc1ccc(S(N)(=O)=O)cc1Nc1nc(-c2ccc(C(=O)N3CCC(N(C)C)CC3)nc2)cs1 [Example 48, 3-{4-[6-(4-Dimethylamino-piperidine-1-carbonyl)-pyridin-3-yl]-thiazol-2-ylamino}-4-isopropoxy-benzenesulfonamide.TFA] | 1100 nM | 4100 nM | 2300 nM |
| CC(C)Oc1ccc(S(N)(=O)=O)cc1Nc1nc(-c2ccc(C(=O)N3CCCN(C)CC3)nc2)cs1 [Example 49, 3-{4-[6-(4-Methyl-[1,4]diazepane-1-carbonyl)-pyridin-3-yl]-thiazol-2-ylamino}-4-isopropoxy-benzenesulfonamide.TFA] | 1000 nM | 2000 nM | 830 nM |
| CC(C)Oc1ccc(S(N)(=O)=O)cc1Nc1nc(-c2ccc(C(=O)NCCN(C)C)nc2)cs1 [Example 50, 5-[2-(2-Isopropoxy-5-sulfamoyl-phenylamino)-thiazol-4-yl]-pyridine-2-carboxylic acid (2-dimethylamino-ethyl)-amide.TFA] | 160 nM | 130 nM | 90 nM |
| CC(C)Oc1ccc(S(N)(=O)=O)cc1Nc1nc(-c2ccc(C(=O)N3CCN(C(C)C)CC3)nc2)cs1 [Example 51, 4-Isopropoxy-3-{4-[6-(4-isopropyl-piperazine-1-carbonyl)-pyridin-3-yl]-thiazol-2-ylamino}-benzenesulfonamide.TFA] | 1800 nM | 2700 nM | 1200 nM |
| CCN1CCCN(C(=O)c2ccc(-c3csc(Nc4cc(S(N)(=O)=O)ccc4OC(C)C)n3)cn2)CC1 [Example 52, 3-{4-[6-(4-Ethyl-[1,4]diazepane-1-carbonyl)-pyridin-3-yl]-thiazol-2-ylamino}-4-isopropoxy-benzenesulfonamide.TFA] | 1000 nM | 2200 nM | 1200 nM |
| CC(C)Oc1ccc(S(N)(=O)=O)cc1Nc1nc(-c2ccc(C(=O)N(C)CCN(C)C)nc2)cs1 [Example 53, 5-[2-(2-Isopropoxy-5-sulfamoyl-phenylamino)-thiazol-4-yl]-pyridine-2-carboxylic acid (2-dimethylamino-ethyl)-methyl-amide.TFA] | 970 nM | 2300 nM | 890 nM |
| CC(C)Oc1ccc(S(N)(=O)=O)cc1Nc1nc(-c2ccc(C(=O)N3CCN(C(=O)OC(C)(C)C)CC3)nc2)cs1 [Example 54, 4-{5-[2-(2-Isopropoxy-5-sulfamoyl-phenylamino)-thiazol-4-yl]-pyridine-2-carbonyl}-piperazine-1-carboxylic acid tert-butyl ester.TFA] | 3700 nM | 2500 nM | 960 nM |
| CC(C)Oc1ccc(S(N)(=O)=O)cc1Nc1nc(-c2ccc(C(=O)NC3CCN(C)CC3)nc2)cs1 [Example 55, 5-[2-(2-Isopropoxy-5-sulfamoyl-phenylamino)-thiazol-4-yl]-pyridine-2-carboxylic acid (1-methyl-piperidin-4-yl)-amide.TFA] | 420 nM | 2600 nM | 810 nM |
| CC(C)Oc1ccc(S(N)(=O)=O)cc1Nc1nc(-c2ccc(CO)nc2)cs1 [Example 56, 3-[4-(6-Hydroxymethyl-pyridin-3-yl)-thiazol-2-ylamino]-4-isopropoxy-benzenesulfonamide] | 390 nM | 1500 nM | 640 nM |
| CC(C)Oc1ccc(S(N)(=O)=O)cc1Nc1nc(-c2ccc(C(=O)N3CCNCC3)nc2)cs1 [Example 58, 4-Isopropoxy-3-{4-[6-(piperazine-1-carbonyl)-pyridin-3-yl]-thiazol-2-ylamino}-benzenesulfonamide.TFA] | 1400 nM | 3100 nM | 1200 nM |
| CC(C)Oc1ccc(S(N)(=O)=O)cc1Nc1nc(-c2ccc(NCC3CC3)nc2)cs1 [Example 62, 3-((4-(6-((Cyclopropylmethyl)amino)pyridin-3-yl)thiazol-2-yl)amino)-4-isopropoxybenzenesulfonamide.TFA] | 610 nM | 2200 nM | 510 nM |
| CC(C)Oc1ccc(S(N)(=O)=O)cc1Nc1nc(-c2ccc(NCCCn3ccnc3)nc2)cs1 [Example 63, 3-((4-(6-((3-(1H-Imidazol-1-yl)propyl)amino)pyridin-3-yl)thiazol-2-yl)amino)-4-isopropoxybenzenesulfonamide.TFA] | 150 nM | 280 nM | 210 nM |
| CC(C)Oc1ccc(S(N)(=O)=O)cc1Nc1nc(-c2ccc(N3CCNC(=O)C3)nc2)cs1 [Example 64, 4-Isopropoxy-3-((4-(6-(3-oxopiperazin-1-yl)pyridin-3-yl)thiazol-2-yl)amino)benzenesulfonamide.TFA] | 120 nM | 2500 nM | 260 nM |
| CC(C)Oc1ccc(S(N)(=O)=O)cc1Nc1nc(-c2ccc(C(=O)NC3CC(C)(C)N(C)C(C)(C)C3)nc2)cs1 [Example 84, 5-(2-((2-Isopropoxy-5-sulfamoylphenyl)amino)thiazol-4-yl)-N-(1,2,2,6,6-pentamethylpiperidin-4-yl)picolinamide.TFA] | 260 nM | 200 nM | 250 nM |
| CC(C)CCNC(=O)c1ccc(-c2csc(Nc3cc(S(N)(=O)=O)ccc3OC(C)C)n2)cn1 [Example 85, N-Isopentyl-5-(2-((2-isopropoxy-5-sulfamoylphenyl)amino)thiazol-4-yl)picolinamide.TFA] | ~20000 nM | 32000 nM | 4600 nM |
| COC/C=C/c1ccc(-c2csc(Nc3cc(S(N)(=O)=O)ccc3OC(C)C)n2)cn1 [Example 93, (E)-4-Isopropoxy-3-((4-(6-(3-methoxyprop-1-en-1-yl)pyridin-3-yl)thiazol-2-yl)amino)benzenesulfonamide.TFA] | 520 nM | 3400 nM | 580 nM |
| COCCCc1ccc(-c2csc(Nc3cc(S(N)(=O)=O)ccc3OC(C)C)n2)cn1 [Example 94, 4-Isopropoxy-3-((4-(6-(3-methoxypropyl)pyridin-3-yl)thiazol-2-yl)amino)benzenesulfonamide.TFA] | 520 nM | 1300 nM | 430 nM |
